# According to patent publication US7048907B2, “Synthesis, compositions and methods for the measurement of the concentration of stable-isotope labeled compounds in life forms and life form excretory products” (BioPhysics Assay Laboratory, Inc., priority 2001, dated 2006):
# Key:
# [1] = Stability of chelates in rat serum (CM-Sephadex assay, serum binding); details: 24 hours in rat serum at room temperature
# [2] = Assay of chelate on carboxymethyl (CM) Sephadex column (chelate formation, charge); format: physicochemical
# Protocol: Preparation of carboxymethyl sephadex column. To two 10 ml plastic pipets cut off at the 3 ml mark and plugged with glass wool at the bottom add enough slurry to form a 2 ml volume of the CM sephadex. Wash the packed resin with 6 ml of 1 M Tris buffer pH 7.5, and 6 ml of 0.01M Tris buffer pH 7.5. […] Collect the eluants of fractions as follows. Fraction 1.3 ml of 0.01 M Tris buffer pH 7.5 and allow to drain into column. Fraction 2.1 ml of sample (gadolinium-DTPA or gadolinium chloride) and allow to drain into column. Apply 3 ml of 0.01 M Tris buffer pH 7.5 and allow to drain into column. Fraction 3.3 ml of 0.01M Tris buffer pH 7.5 and allow to drain into column. Dry all fractions at 70° C. for 76 hours, dissolve in 1 ml of 1 mM HCl and assay by atomic absorption.
# (§1) Preparation of carboxymethyl Sephadex column. To two 10 ml plastic pipets which had been cut off at the 3 ml mark and plugged with glass wool at the bottom, enough slurry was added to form a 2 ml volume of the CM Sephadex. The packed resin was wash with 6 ml of 1 M Tris buffer pH 7.5, and 6 ml of 0.01M Tris buffer pH 7.5. […] Fractions were applied as follows. Fraction 1. Three ml of 0.01 M Tris buffer pH 7.5 and allow to drain into column. Fraction 2. One ml of sample (samarium-DTPA or samarium chloride) and allow to drain into column. Apply 3 ml of 0.01 M Tris buffer pH 7.5 and allow to drain into column. Fraction 3. Three ml of 0.01M Tris buffer pH 7.5 and allow to drain into column. Collect the eluant of fractions 1 through 3. Fraction 4. Column and contents.
# as §1, with “were” for “had been”, “washed” for “wash”, “(lanthanum-DTPA” for “(samarium-DTPA”, “lanthanum” for “samarium”
# as §1, with “were” for “had been”, “washed” for “wash”, “(Europium-DTPA” for “(samarium-DTPA”, “Europium” for “samarium”
# Preparation of carboxymethyl sephadex column. To a 10 ml plastic pipet cut off at the 3 ml mark and plugged with glass wool at the bottom, add enough slurry to form a 2 ml volume of the CM sephadex. Wash the packed resin with 6 ml of 1 M Tris buffer pH 7.5, and 6 ml of 0.01M Tris buffer pH 7.5. […] Apply fractions as follows. Fraction 1. One ml of sample A and allow to drain into column.
# [3] = Kinetics of blood depletion and urine accumulation of chelates in the rat; format: in vivo; details: ^99mTc-DTPA, Gd-DTPA and Sm-DTPA simultaneously administered (Example 30), average of three rats
# Protocol: One half ml of Sm-DTPA (0.01 mg/kg), dissolved in saline (pH 7), is injected into the tail vein of three rats. Samples of blood are obtained at 10, 30 and 60 minutes following injection and analyzed for Sm-DTPA by neutron activation. The percent of starting amount of the Sm-DTPA at each time interval is presented in Table 18 (last column on right). Similarly, the accumulation of Sm-DTPA in the rat urine at two times is shown in the last column of Table 18.
# One half ml of Technetium-99m-DTPA (1 millicurie), Gd-DTPA (0.05 mg/kg), and Sm-DTPA (0.01 mg/kg) are each dissolved in saline (pH 7), and are injected simultaneously into the tail vein of three rats. Samples of blood are obtained at 10, 30 and 60 minutes following injection and analyzed for ^99mTc-DTPA (gamma counting), Gd-DTPA (T1 relaxation) and Sm-DTPA (neutron activation).
# One half ml of Sm-DTPA, La-DTPA and Eu-DTPA (each 0.01 mg/kg), dissolved in saline (pH 7) are injected simultaneously into the tail vein of three rats. Samples of blood are obtained at 10, 30 and 60 minutes following injection and analyzed for each element by neutron activation.
# Samples of Sm-DTPA, La-DTPA and Eu-DTPA (0.5 ml; 0.01 mg/kg), each dissolved in saline (pH 7), are injected sequentially at 0, 20, and 40 minutes into the tail vein of three rats. Samples of blood are obtained at 10, 30 and 60 min following each injection and analyzed for each element by neutron activation.
# [4] = Stability of chelates to autoclaving (CM-Sephadex assay); format: physicochemical; details: for % of total / dpm: autoclaved 30 minutes at 121° C.
# Protocol: A sample comprising 5 ml of Sm-DTPA, La-DTPA, and Eu-DTPA prepared in Examples 9, 10, and 11 were placed in 10 ml glass bottles, each capped with a grey butyl rubber cap, and the caps were crimped. Samples were autoclaved for 30 minutes at 121° C.
# Five ml of each of Sm-DOTA, La-DOTA, and Eu-DOTA prepared in Examples 13, 14, and 15 were placed in 10 ml glass bottles capped with a grey butyl rubber cap and crimped. Samples were autoclaved for 30 minutes at 121° C. Samples were allowed to cool to room temperature and were assayed as described in Examples 25.
# [5] = Fraction 1: 0.2 ml sample then 2 ml 0.01M Tris pH 7.5 (eluate)
# [6] = Fraction 2: 3 ml 0.01M Tris pH 7.5
# [7] = Fraction 3: column and contents (retained)
# [8] = Fraction 1: 3 ml 0.01M Tris pH 7.5 before sample
# [9] = Fraction 2: 1 ml sample then 3 ml 0.01M Tris pH 7.5 (eluate)
# [10] = Fraction 3: further 3 ml 0.01M Tris pH 7.5
# [11] = Fraction 4: column and contents (retained)
# [12] = Fraction 1: sample diluted 1:10 then 2-3 ml 0.01M Tris pH 7.5 (eluate)
# [13] = DOTA chelates, Fraction 1: 1 ml sample diluted 1:10 then 3 ml 0.01M Tris pH 7.5 (eluate)
# [14] = DOTA chelates, Fraction 2: further 3 ml 0.01M Tris pH 7.5
# [15] = DOTA chelates, Fraction 3: column and contents (retained)
Molecule,"% of total [1, 5]","dpm [1, 5] [dpm]","% of total [1, 6]","dpm [1, 6] [dpm]","% of total [1, 7]","dpm [1, 7] [dpm]",% of unchelated ion retained on the column [2] [%],"% of total [2, 8]","dpm [2, 8] [dpm]","% of total [2, 9]","dpm [2, 9] [dpm]","% of total [2, 10]","dpm [2, 10] [dpm]","% of total [2, 11]","% of total [4, 12]","dpm [4, 12] [dpm]","% of total [4, 6]","dpm [4, 6] [dpm]","% of total [4, 7]","dpm [4, 7] [dpm]",further results
"[Cl][La]([Cl])[Cl] [Lanthanum chloride, reference compound]",49 % of total,51651,6 % of total,6586,44 % of total,46450,100,0 % of total,0,0 % of total,0,0 % of total,0,100 % of total,,,,,,,
"[Cl][Sm]([Cl])[Cl] [Samarium chloride, reference compound]",48 % of total,104992,3 % of total,5702,49 % of total,108299,100,0 % of total,0,0 % of total,0,0 % of total,0,100 % of total,,,,,,,
"[Cl][Gd]([Cl])[Cl] [Gadolinium chloride, reference compound]",,,,,,,100,0 % of total,,0 % of total,,0 % of total,,,,,,,,,
"Technetium-99m-DTPA [^99mTc-DTPA, reference compound]",,,,,,,,,,,,,,,,,,,,,"Percent of initial injection, blood ([3]; blood 10 min after i.v. injection): 85% of initial injection; Percent of initial injection, blood ([3]; blood 30 min): 63% of initial injection; Percent of initial injection, blood ([3]; blood 60 min): 30% of initial injection; Percent of initial injection, urine ([3]; urine 30 min): 25% of initial injection; Percent of initial injection, urine ([3]; urine 180 min): 92% of initial injection"
"[Cl][Eu]([Cl])[Cl] [Europium chloride, reference compound]",42 % of total,2378,5 % of total,291,52 % of total,2940,100,0 % of total,0,0 % of total,0,0 % of total,0,100 % of total,,,,,,,"dpm [2, 11]: 21244 dpm"
O=C([O-])CN1CCN(CC(=O)[O-])CCN(CC(=O)[O-])CCN(CC(=O)[O-])CC1.[Sm+3] [Sm-DOTA],,,,,,,,,,,,,,,98 % of total,1439622,2 % of total,27521,0 % of total,0,"stability to autoclaving [4]: unstable product producing a mixture of Sm-DOTA and unchelated Sm^+3; % eluted from the CM-Sephadex column [2]: 100%; % of total [2, 13]: 98 % of total; dpm [2, 13]: 1429326 dpm; % of total [2, 14]: 2 % of total; dpm [2, 14]: 28850 dpm; % of total [2, 15]: 0 % of total; dpm [2, 15]: 0 dpm"
O=C([O-])CN1CCN(CC(=O)[O-])CCN(CC(=O)[O-])CCN(CC(=O)[O-])CC1.[La+3] [La-DOTA],,,,,,,,,,,,,,,100 % of total,400045,<1 % of total,11,0 % of total,0,"% eluted from CM-Sephadex column following autoclaving [4]: 100%; % eluted from the CM-Sephadex column [2]: 100%; % of total [2, 13]: 97 % of total; dpm [2, 13]: 410040 dpm; % of total [2, 14]: 3 % of total; dpm [2, 14]: 11681 dpm; % of total [2, 15]: 0 % of total; dpm [2, 15]: 0 dpm"
O=C([O-])CN1CCN(CC(=O)[O-])CCN(CC(=O)[O-])CCN(CC(=O)[O-])CC1.[Eu+3] [Eu-DOTA],,,,,,,,,,,,,,,100 % of total,366651,<1 % of total,1226,0 % of total,0,"% eluted from CM-Sephadex column following autoclaving [4]: 100%; % eluted from the CM-Sephadex column [2]: 100%; % of total [2, 13]: 100 % of total; dpm [2, 13]: 391454 dpm; % of total [2, 14]: <1 % of total; dpm [2, 14]: 132 dpm; % of total [2, 15]: 0 % of total; dpm [2, 15]: 0 dpm"
